Experimental data taken from PMC7933930, “Development of a small molecule that corrects misfolding and increases secretion of Z α1‐antitrypsin” (EMBO Molecular Medicine, 2021).
pEC50, pIC50: −log10 of the molar value.

Legend:
[1] = target: Vasopressin V1a (Homo sapiens, UniProt P37288); assay: Off‐target panel: Vasopressin V1a; type: cell-based; conditions: Antagonist, read-out: Mean (PXC50) (converted)
Experimental: (§1) GSK716 selectivity and PK properties were profiled in order to investigate the suitability of GSK716 for progression into in vivo studies and the potential for taking it forward as a clinical candidate for testing in humans. Since GSK716 results in loss of inhibitory activity of α1‐antitrypsin, the effect of the compound was assessed on other closely related serpins. […] Furthermore, there were no off‐target effects in a panel of assays considered predictive of known safety liabilities that precluded further development of GSK716 (Table EV1).

[2] = target: T1, Muscarinic M1 (Homo sapiens, UniProt P11229); assay: Off‐target panel: Muscarinic M1 (DRX); type: cell-based
T1 sequence (P11229 1-460): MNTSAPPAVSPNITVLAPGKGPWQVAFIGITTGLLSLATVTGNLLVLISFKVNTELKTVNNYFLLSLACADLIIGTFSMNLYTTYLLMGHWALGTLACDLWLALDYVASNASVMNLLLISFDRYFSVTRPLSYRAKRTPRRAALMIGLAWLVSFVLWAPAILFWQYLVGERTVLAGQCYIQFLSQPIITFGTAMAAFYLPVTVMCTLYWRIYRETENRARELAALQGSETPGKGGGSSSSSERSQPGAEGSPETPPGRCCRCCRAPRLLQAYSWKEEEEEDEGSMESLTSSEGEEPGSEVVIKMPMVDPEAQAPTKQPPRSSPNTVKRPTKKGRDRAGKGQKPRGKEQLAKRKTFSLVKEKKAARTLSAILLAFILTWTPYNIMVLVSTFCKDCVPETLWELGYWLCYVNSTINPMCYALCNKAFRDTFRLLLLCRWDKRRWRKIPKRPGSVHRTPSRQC
Experimental: as §1

[3] = target: T2, Serotonin 5HT2C (Homo sapiens, UniProt P28335); assay: Off‐target panel: Serotonin 5HT2C (DRX); type: cell-based
T2 sequence (P28335 33-458): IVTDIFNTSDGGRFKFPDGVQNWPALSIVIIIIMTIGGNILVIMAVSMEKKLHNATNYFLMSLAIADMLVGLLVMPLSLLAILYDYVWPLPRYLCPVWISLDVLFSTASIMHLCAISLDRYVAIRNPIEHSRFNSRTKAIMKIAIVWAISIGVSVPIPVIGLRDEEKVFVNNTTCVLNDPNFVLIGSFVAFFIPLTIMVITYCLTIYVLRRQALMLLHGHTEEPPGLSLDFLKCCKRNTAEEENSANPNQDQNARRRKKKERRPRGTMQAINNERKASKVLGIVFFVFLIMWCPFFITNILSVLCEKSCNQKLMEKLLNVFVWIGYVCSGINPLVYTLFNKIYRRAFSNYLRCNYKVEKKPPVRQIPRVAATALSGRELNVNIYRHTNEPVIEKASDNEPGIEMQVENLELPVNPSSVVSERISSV
Experimental: as §1

[4] = target: NK1 (TACR1) (Homo sapiens, UniProt P25103); assay: Off‐target panel: NK1 (TACR1); type: cell-based; conditions: Antagonist, read-out: Mean (PXC50)
NK1 (TACR1), sequence (P25103 whole entry, species assumed): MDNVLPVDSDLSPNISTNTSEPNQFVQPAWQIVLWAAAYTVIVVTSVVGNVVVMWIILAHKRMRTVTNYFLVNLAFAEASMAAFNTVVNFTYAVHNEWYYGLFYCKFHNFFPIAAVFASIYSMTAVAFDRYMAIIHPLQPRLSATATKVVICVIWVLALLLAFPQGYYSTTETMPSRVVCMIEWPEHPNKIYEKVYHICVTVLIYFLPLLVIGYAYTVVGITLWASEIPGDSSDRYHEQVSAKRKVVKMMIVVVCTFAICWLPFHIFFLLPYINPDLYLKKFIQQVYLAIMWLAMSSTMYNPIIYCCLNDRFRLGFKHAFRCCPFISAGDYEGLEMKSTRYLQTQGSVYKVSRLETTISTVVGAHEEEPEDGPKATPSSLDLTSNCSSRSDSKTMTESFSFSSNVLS
Experimental: as §1

[5] = target: Norepinephrine transporter (Homo sapiens, UniProt P23975); assay: Off‐target panel: Norepinephrine transporter; type: cell-based
Norepinephrine transporter, sequence (P23975 whole entry, species assumed): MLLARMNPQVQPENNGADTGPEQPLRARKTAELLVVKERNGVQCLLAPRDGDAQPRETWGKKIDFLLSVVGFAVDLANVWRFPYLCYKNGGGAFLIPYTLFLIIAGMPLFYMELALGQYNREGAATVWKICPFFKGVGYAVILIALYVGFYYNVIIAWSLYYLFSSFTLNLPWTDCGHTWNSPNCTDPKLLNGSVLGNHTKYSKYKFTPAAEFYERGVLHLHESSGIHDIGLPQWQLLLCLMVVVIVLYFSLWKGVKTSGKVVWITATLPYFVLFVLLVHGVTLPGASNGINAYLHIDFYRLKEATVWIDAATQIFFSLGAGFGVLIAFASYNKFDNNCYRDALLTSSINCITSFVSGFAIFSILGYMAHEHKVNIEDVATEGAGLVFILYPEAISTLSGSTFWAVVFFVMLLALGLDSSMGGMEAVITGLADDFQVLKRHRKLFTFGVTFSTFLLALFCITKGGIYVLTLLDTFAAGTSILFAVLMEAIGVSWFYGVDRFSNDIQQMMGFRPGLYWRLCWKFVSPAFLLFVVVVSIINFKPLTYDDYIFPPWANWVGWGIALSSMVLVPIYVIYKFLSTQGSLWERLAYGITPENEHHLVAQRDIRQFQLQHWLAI
Experimental: as §1

[6] = target: Cycloxygenase2 (COX2) (Homo sapiens, UniProt P35354); assay: Off‐target panel: Cycloxygenase2 (COX2); type: biochemical; conditions: Inhibition, read-out: Mean (PXC50)
Cycloxygenase2 (COX2), sequence (P35354 18-604): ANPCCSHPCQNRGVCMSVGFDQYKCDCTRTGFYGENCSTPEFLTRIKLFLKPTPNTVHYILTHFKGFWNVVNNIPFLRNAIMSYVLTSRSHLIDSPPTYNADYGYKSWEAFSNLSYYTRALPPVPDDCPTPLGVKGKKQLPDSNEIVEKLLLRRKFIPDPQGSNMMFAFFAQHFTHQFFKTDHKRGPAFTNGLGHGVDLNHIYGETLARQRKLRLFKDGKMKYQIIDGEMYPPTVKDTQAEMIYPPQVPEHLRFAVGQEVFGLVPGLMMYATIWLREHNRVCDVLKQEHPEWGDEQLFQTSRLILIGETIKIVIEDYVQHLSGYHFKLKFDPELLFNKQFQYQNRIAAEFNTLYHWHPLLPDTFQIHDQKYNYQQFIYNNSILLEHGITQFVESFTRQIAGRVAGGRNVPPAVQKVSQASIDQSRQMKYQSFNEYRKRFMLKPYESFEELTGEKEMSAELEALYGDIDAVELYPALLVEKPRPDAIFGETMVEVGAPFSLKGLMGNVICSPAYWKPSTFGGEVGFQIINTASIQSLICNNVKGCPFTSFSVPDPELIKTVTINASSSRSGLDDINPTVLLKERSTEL
Experimental: as §1

[7] = Oral pharmacokinetics in dog; type: in vivo; conditions: beagle, whole blood, ≤ 3 mg/kg, read-out: F (oral bioavailability)
Experimental: […] Blood samples were taken into EDTA, diluted and mixed with acetonitrile containing internal standard (alprazolam) and centrifuged to precipitate proteins. Aliquots of the resultant supernatant were analysed by LC‐MS/MS, and concentrations of GSK716 in blood were determined. Non‐compartmental pharmacokinetic analysis (NCA) was carried out using Phoenix WinNonLin 6.3 (Certara L.P.). Free drug was measured in Z α1‐antitrypsin transgenic mice by dialysing tissue samples in rapid equilibrium dialysis cassettes.

[8] = target: Aurora B (STK12) (Homo sapiens, UniProt Q96GD4); assay: Off‐target panel: Aurora B (STK12); type: biochemical; conditions: Inhibition, read-out: Mean (PXC50)
Aurora B (STK12), sequence (Q96GD4 whole entry, species assumed): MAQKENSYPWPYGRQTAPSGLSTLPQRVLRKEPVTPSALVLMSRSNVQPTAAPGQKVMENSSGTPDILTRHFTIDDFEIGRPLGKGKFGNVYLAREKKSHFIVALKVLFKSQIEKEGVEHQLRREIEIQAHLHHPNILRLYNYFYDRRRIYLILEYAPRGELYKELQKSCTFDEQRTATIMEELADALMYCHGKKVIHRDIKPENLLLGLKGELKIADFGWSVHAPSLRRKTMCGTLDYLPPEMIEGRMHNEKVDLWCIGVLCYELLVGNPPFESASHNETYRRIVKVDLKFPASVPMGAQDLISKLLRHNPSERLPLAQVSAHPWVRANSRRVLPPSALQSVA
Experimental: as §1

[9] = target: Adrenergic β2 (Homo sapiens, UniProt P07550); assay: Off‐target panel: Adrenergic β2; type: cell-based; conditions: read-out: Mean (PXC50)
Adrenergic β2, sequence (P07550 whole entry): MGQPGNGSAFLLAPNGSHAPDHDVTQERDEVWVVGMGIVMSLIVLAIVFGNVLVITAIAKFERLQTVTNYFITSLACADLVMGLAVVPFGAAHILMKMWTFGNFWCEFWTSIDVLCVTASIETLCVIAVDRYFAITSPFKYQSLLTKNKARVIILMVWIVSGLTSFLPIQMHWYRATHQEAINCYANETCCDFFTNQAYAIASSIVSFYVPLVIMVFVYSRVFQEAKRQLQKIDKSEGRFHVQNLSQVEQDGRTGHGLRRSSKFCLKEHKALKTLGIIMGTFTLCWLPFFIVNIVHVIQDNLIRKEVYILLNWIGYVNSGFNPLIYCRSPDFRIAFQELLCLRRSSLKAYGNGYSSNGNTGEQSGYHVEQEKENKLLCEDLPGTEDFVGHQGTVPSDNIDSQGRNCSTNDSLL
Experimental: as §1

[10] = target: Adrenergic α2C (Homo sapiens, UniProt P18825); assay: Off‐target panel: Adrenergic α2C (DRX); type: cell-based
Adrenergic α2C, sequence (P18825 whole entry): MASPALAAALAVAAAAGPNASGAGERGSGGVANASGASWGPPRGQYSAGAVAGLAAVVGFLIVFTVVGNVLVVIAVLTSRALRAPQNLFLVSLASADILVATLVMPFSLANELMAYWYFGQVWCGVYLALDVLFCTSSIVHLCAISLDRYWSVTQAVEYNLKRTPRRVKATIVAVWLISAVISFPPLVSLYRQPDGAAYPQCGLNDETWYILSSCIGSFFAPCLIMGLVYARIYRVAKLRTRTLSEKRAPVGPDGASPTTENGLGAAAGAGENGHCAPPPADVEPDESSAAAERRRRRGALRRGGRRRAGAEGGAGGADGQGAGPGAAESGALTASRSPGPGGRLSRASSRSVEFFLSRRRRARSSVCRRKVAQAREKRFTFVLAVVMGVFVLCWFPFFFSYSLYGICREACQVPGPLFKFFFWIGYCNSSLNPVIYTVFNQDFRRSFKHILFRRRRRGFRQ
Experimental: as §1

Vasopressin V1a, sequence (P37288 whole entry): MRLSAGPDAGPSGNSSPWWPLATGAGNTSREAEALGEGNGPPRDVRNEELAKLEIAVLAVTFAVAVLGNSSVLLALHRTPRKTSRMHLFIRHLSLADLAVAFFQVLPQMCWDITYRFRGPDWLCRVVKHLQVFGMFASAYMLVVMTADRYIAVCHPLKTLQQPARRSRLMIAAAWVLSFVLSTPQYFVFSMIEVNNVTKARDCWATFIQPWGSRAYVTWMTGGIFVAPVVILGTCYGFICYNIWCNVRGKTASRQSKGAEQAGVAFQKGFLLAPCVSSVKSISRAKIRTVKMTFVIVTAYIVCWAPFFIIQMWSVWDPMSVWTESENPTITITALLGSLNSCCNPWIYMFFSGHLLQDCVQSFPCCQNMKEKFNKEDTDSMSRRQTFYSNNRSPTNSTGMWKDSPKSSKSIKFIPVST

## CCC[C@@H](NC(=O)c1cccc2c1CC(=O)N2)[C@@H](O)c1cccc(F)c1C [GSK716]
[1]
  IC50: 39.8 µM
[2]
  pEC50: < 4.30
  pIC50: < 4.30
[3]
  pEC50: < 4.00
  pIC50: 4.30
[4]
  pIC50: < 4.60
[5]
  pIC50: < 4.00
[6]
  pIC50: < 4.00
[7]
  bioavailability: 71%
[8]
  pIC50: < 4.50
[9]; Agonist
  pEC50: < 4.00
[9]; Antagonist
  pIC50: < 4.00
[10]
  pEC50: < 4.00
